Patent US8633245B2, “PAI-1 inhibitor” (Institute of Medicinal Molecular Design, Inc., priority 2008, dated 2014)
Where two headings read alike, the source gives them in different places.

Molecular target: T1, recombinant human PAI-1 (Homo sapiens, UniProt P05121)
T1 construct: purchased Molecular Innovations, Inc
Test: Test Example 2: human PAI-1 inhibitory activity (tPA fluorogenic substrate, pH 7.4 HEPES buffer)
Type: biochemical
Experimental: 0.1 M HEPES, 0.1 M NaCl. 1 mM EDTA. 0.1% Polyethylene glycol 8,000 (Hampton Research Corporation),
2 mM Dimethyldecylphoshine oxide [Apo-10] (Fluka Corporation)

[1] = human PAI-1, compound concentration 0.1 μM
[2] = human PAI-1, compound concentration 0.3 μM
[3] = human PAI-1, compound concentration 1 μM
[4] = human PAI-1, compound concentration 3 μM
[5] = human PAI-1, calculated from the inhibition rates

T1 sequence (P05121 24-402): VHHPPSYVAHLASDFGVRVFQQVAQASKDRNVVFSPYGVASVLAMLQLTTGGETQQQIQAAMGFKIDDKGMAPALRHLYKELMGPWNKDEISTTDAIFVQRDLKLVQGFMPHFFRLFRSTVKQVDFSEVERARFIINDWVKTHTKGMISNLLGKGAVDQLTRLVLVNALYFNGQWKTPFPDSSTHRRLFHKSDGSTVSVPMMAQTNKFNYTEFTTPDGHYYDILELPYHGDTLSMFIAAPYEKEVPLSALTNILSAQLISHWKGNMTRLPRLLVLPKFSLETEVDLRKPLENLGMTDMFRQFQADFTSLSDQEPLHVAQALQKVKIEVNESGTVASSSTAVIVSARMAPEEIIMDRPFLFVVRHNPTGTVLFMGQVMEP

Structure (SMILES) | Inhibition Rate of PAI-1 Activity (%) [1] | Inhibition Rate of PAI-1 Activity (%) [2] | Inhibition Rate of PAI-1 Activity (%) [3] | Inhibition Rate of PAI-1 Activity (%) [4] | Inhibition Rate of PAI-1 Activity (%) (human PAI-1, compound concentration 10 μM) | Inhibition Rate of PAI-1 Activity (%) (human PAI-1, compound concentration 25 μM) | IC50 [5] | IC50
CC(C)(C)c1cccc(Oc2cc(-c3cccc(OC(F)(F)F)c3)ccc2/C=C/C(=O)O)c1 [Compound 514] | 21% | 22% | 96% | >99% |  |  |  | 
CC(C)(C)c1ccc(Oc2cc(-c3ccc(OC(F)(F)F)cc3)ccc2NCC(=O)O)cc1 [Compound 442] | 1% | 4% | 83% | >99% |  |  |  | 
CN(C(=O)c1ccc(N(Cc2ccc(C(C)(C)C)cc2)C(=O)C(=O)O)cc1)c1ccc(OC(F)(F)F)cc1 [Compound 618] |  |  | 0% | 24% | 78% | >99% |  | 
CC(C)(C)c1ccc(Oc2cc(-c3ccc(C(F)(F)F)cc3)ccc2OCC(=O)O)cc1 [Compound 330] |  |  |  |  |  |  | 1030 nM | 
O=C(O)/C=C/c1ccc(-c2ccc(OC(F)(F)F)cc2)cc1OCCCOCc1ccccc1 [Compound 487] | 0% | 3% | 26% | 98% |  |  |  | 
CCCCCCCCCCOc1ccc(-c2ccc(OC(F)(F)F)cc2)cc1N(CCCCc1ccccc1)C(=O)C(=O)O [Compound 365] |  |  |  |  |  |  |  | 110 nM
CC(C)(C)Oc1ccc(Oc2cc(-c3ccc(OC(F)(F)F)cc3)ccc2CCC(=O)O)cc1 [Compound 473] | 15% | 9% | 26% | >99% |  |  |  | 
Cc1cccc(-c2ccc(Oc3ccc(C(C)(C)C)cc3)c(OCC(=O)O)c2)c1 [Compound 316] |  |  |  |  |  |  | 1780 nM | 
CC(C)(C)c1ccc(CCc2cc(-c3ccc(OC(F)(F)F)cc3)ccc2OCC(=O)O)cc1 [Compound 551] | 0% | 4% | 92% | >99% |  |  |  | 
Cc1cc(C)cc(Oc2cc(-c3ccc(C(C)(C)C)cc3)ccc2/C=C/C(=O)O)c1 [Compound 494] | 9% | 24% | 87% | 92% |  |  |  | 
CCCCC(Oc1cc(-c2ccc(OC(F)(F)F)cc2)ccc1OCCCCc1ccc(F)cc1)C(=O)O (stereo not shown) [Compound 324] |  |  |  |  |  |  | 830 nM | 
CCCCN(CC(=O)O)c1cc(-c2ccc(OC(F)(F)F)cc2)ccc1OCCCCc1ccccc1 [Compound 433] | 13% | 6% | 41% | 98% |  |  |  | 
CCCCCOc1ccc(-c2ccc(OC(F)(F)F)cc2)cc1N(CCCCc1cc(C)ccc1C)C(=O)C(=O)O [Compound 670] | 6% | 55% | 97% | 94% |  |  |  | 
CC(C)(C)c1ccc(C(=O)c2cc(-c3ccc(OC(F)(F)F)cc3)ccc2OCC(=O)O)cc1 [Compound 549] | 23% | 22% | 84% | >99% |  |  |  | 
O=C(O)COc1ccc(-c2ccc(OC(F)(F)F)cc2)cc1OCCCCc1ccccc1 [Compound 337] |  |  |  |  |  |  | 2020 nM | 
CC(C)(C)c1ccc(Oc2cc(-c3cc(Cl)ccc3Cl)ccc2CCC(=O)O)cc1 [Compound 484] | 0% | 7% | 73% | >99% |  |  |  | 
CC(C)[C@@H]1CC[C@@H](C)C[C@H]1Oc1ccc(-c2ccc(OC(F)(F)F)cc2)cc1N(CCCCc1ccccc1)C(=O)C(=O)O [Compound 639] | 6% | 12% | 91% | 87% |  |  |  | 
CCCCCCC(Oc1cc(-c2ccc(OC(F)(F)F)cc2)ccc1Oc1ccccc1)C(=O)O (stereo not shown) [Compound 322] |  |  |  |  |  |  | 740 nM | 
CN(CC(=O)O)c1ccc(-c2ccc(OC(F)(F)F)cc2)cc1Oc1ccc(C(C)(C)C)cc1 [Compound 534] | 13% | 21% | 84% | >99% |  |  |  | 
CC(C)(C)c1cccc(Oc2cc(-c3ccc(OC(F)(F)F)cc3)ccc2OCC(=O)O)c1 [Compound 436] | 3% | 19% | 63% | >99% |  |  |  | 
O=C(O)C(=O)N(CCCCc1ccccc1)c1cc(-c2ccc(OC(F)(F)F)cc2)ccc1OCCC(F)(F)F [Compound 383] |  |  |  |  |  |  |  | 1340 nM
O=C(O)CCc1ccc(-c2ccc(OC(F)(F)F)cc2)cc1OC(c1ccccc1)c1ccccc1 [Compound 507] | 6% | 8% | 49% | >99% |  |  |  | 
CC(C)(C)c1ccc(Sc2cc(-c3ccc(OC(F)(F)F)cc3)ccc2CC(=O)O)cc1 [Compound 530] | 17% | 21% | 93% | >99% |  |  |  | 
CC(C)c1ccccc1Oc1cc(-c2ccc(OC(F)(F)F)cc2)ccc1/C=C/C(=O)O [Compound 490] | 6% | 13% | 91% | >99% |  |  |  | 
O=C(O)C(=O)N(CCCCc1ccccc1)c1cc(-c2ccc(OC(F)(F)F)cc2)ccc1OC1C2CC3CC(C2)CC1C3 (stereo not shown) [Compound 634] | 17% | 37% | >99% | 92% |  |  |  | 
CC(C)c1ccc(Oc2cc(-c3ccc(OC(F)(F)F)cc3)ccc2CCC(=O)O)cc1 [Compound 510] | 0% | 8% | 84% | >99% |  |  |  | 
CC(C)(C)c1ccc(Oc2ccc(-c3ccc(OC(F)(F)F)cc3)cc2OCC(=O)O)cc1 [Compound 328] | 0% | 14% | 30% | >99% |  |  | 1460 nM | 
CCCN(CC(=O)O)c1cc(-c2ccc(OC(F)(F)F)cc2)ccc1Oc1ccc(C(C)(C)C)cc1 [Compound 435] | 12% | 29% | 81% | 98% |  |  |  | 
CCCCCOc1ccc(-c2ccc(OC(F)(F)F)cc2)cc1N(CCCOCc1ccccc1)C(=O)C(=O)O [Compound 655] | 3% | 0% | 44% | 97% |  |  |  | 
CC(C)(C)c1cccc(Oc2ccc(-c3ccc(OC(F)(F)F)cc3)cc2OCC(=O)O)c1 [Compound 439] | 12% | 9% | 44% | >99% |  |  |  | 
